In ChEMBL document CHEMBL2151015, “Discovery of a potent, selective, and orally bioavailable acidic 11β-hydroxysteroid dehydrogenase type 1 (11β-HSD1) inhibitor: discovery of 2-[(3S)-1-[5-(cyclohexylcarbamoyl)-6-propylsulfanylpyridin-2-yl]-3-piperidyl]acetic acid (AZD4017)” (J Med Chem, 2012):
In brackets after ≈: the same amount, converted by molar mass. Activity calls are given as the source filed them. The rule behind the calls is not given here.

Legend:
[1] = Octanol-buffer partition coefficient, log D of the compound after 30 mins by shake flask method at pH 7.4; settings: octanol/buffer
[2] = Fraction unbound in rat plasma after 18 to 19 hrs by equilibrium dialysis; assay type: ADME, cell-free
[3] = Aqueous solubility of the compound after 24 hrs by LC-UV analysis at pH 7.4; assay type: physicochemical; settings: aqueous medium
[4] = Intrinsic clearance in rat hepatocytes assessed per 10^6 cells
[5] = Oral bioavailability in rat; assay type: ADME, organism-based; settings: in vivo
[6] = Fraction unbound in mouse plasma after 18 to 19 hrs by equilibrium dialysis; assay type: ADME, cell-free
[7] = Fraction unbound in dog plasma after 18 to 19 hrs by equilibrium dialysis; assay type: ADME, cell-free, Canis lupus familiaris
[8] = Fraction unbound in human plasma after 18 to 19 hrs by equilibrium dialysis; assay type: ADME, cell-free
[9] = Apparent permeability from apical to basal side of MDCK cells at 10 uM; assay type: ADME, cell-based, Canis lupus familiaris; settings: dog
[10] = Apparent permeability from basal to apical side of MDCK cells at 10 uM; assay type: ADME, cell-based, Canis lupus familiaris; settings: dog
CYP1A2 = CYP1A2 (Homo sapiens, UniProt P05177); test: Inhibition of CYP1A2 at 10 uM; assay type: ADME
CYP2C9 = CYP2C9 (Homo sapiens, UniProt P11712); test: Inhibition of CYP2C9 at 10 uM; assay type: ADME
Chain of CYP2C9 (P11712 whole entry): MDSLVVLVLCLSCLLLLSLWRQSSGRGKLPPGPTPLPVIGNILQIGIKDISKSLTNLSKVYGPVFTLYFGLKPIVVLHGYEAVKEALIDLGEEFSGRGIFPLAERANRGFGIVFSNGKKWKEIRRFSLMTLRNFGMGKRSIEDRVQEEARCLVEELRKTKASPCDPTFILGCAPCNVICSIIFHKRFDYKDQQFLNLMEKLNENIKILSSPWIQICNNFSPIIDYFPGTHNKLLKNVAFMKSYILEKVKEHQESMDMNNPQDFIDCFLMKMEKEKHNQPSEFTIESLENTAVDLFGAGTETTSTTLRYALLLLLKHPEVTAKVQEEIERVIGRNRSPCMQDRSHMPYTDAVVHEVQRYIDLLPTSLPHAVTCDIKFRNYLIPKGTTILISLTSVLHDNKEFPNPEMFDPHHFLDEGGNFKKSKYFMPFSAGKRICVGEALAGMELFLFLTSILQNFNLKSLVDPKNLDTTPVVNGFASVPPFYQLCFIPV

CYP2D6 = CYP2D6 (Homo sapiens, UniProt P10635); test: Inhibition of CYP2D6 at 10 uM; assay type: ADME
Chain of CYP2D6 (P10635 whole entry): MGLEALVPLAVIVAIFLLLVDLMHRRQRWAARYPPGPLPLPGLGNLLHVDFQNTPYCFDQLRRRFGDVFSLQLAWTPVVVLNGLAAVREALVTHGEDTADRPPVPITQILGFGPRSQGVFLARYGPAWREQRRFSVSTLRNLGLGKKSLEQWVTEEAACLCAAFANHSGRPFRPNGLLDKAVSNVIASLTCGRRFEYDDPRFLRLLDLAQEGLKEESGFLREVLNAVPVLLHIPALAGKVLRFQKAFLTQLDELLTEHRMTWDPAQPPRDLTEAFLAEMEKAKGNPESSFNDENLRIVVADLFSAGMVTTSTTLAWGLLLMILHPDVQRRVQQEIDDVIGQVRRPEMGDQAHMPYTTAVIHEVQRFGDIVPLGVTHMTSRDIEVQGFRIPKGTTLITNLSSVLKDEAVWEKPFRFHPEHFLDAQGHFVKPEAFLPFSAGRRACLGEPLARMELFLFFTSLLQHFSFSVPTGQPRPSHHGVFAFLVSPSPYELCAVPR

CYP2C19 = CYP2C19 (Homo sapiens, UniProt P33261); test: Inhibition of CYP2C19 at 10 uM; assay type: ADME
Chain of CYP2C19 (P33261 whole entry): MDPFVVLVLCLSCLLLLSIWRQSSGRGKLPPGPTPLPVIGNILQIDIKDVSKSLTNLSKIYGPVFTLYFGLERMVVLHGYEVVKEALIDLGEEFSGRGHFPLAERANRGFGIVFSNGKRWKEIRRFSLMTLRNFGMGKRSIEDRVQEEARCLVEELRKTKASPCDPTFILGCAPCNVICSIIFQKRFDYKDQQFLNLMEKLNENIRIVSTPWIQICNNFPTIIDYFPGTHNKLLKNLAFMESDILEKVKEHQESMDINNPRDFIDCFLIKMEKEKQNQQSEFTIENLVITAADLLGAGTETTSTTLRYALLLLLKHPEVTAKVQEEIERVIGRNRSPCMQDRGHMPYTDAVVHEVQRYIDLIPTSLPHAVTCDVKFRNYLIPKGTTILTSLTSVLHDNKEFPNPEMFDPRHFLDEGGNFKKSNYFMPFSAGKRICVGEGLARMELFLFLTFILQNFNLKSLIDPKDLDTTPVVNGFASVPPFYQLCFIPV

CYP3A4 = CYP3A4 (Homo sapiens, UniProt P08684); test: Inhibition of CYP3A4 at 10 uM; assay type: ADME
Chain of CYP3A4 (P08684 whole entry): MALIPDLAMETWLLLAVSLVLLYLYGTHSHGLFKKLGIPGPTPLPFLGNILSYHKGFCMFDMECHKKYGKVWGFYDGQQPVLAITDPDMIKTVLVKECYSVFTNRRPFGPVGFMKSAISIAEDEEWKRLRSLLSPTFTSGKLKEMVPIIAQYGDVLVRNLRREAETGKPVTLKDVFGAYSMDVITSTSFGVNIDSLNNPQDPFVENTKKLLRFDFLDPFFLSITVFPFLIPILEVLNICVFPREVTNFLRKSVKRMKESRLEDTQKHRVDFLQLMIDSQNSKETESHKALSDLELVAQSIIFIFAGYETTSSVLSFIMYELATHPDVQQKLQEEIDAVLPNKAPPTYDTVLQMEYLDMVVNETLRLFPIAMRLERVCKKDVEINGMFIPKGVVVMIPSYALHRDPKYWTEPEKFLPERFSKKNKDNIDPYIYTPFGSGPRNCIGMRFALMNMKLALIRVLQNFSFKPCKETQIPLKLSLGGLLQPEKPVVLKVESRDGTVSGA

[11] = Plasma clearance in mouse at 1 to 3 mg/kg; assay type: ADME, organism-based; parameters: dose 1-3 mg/kg
[12] = Volume of distribution at steady state in mouse at 1 to 3 mg/kg; assay type: ADME, organism-based; parameters: dose 1-3 mg/kg; settings: in vivo, read-out: Vdss
[13] = Half life in mouse at 1 to 3 mg/kg, iv; assay type: ADME, organism-based; parameters: dose 1-3 mg/kg, route intravenous; settings: in vivo
[14] = Half life in mouse at 1 to 3 mg/kg, po; assay type: ADME, organism-based; parameters: dose 1-3 mg/kg, route oral; settings: in vivo
[15] = Oral bioavailability in mouse at 1 to 3 mg/kg; assay type: ADME, organism-based; settings: in vivo
[16] = Plasma clearance in rat at 1 to 3 mg/kg; assay type: ADME, organism-based; parameters: dose 1-3 mg/kg
[17] = Volume of distribution at steady state in rat at 1 to 3 mg/kg; assay type: ADME, organism-based; parameters: dose 1-3 mg/kg; settings: in vivo, read-out: Vdss
[18] = Half life in rat at 1 to 3 mg/kg, iv; assay type: ADME, organism-based; parameters: dose 1-3 mg/kg, route intravenous; settings: in vivo
[19] = Half life in rat at 1 to 3 mg/kg, po; assay type: ADME, organism-based; parameters: dose 1-3 mg/kg, route oral; settings: in vivo
[20] = Oral bioavailability in rat at 1 to 3 mg/kg; assay type: ADME, organism-based; settings: in vivo
[21] = Plasma clearance in dog at 1 to 3 mg/kg; assay type: ADME, organism-based, Canis lupus familiaris; parameters: dose 1-3 mg/kg
[22] = Volume of distribution at steady state in dog at 1 to 3 mg/kg; assay type: ADME, organism-based, Canis lupus familiaris; parameters: dose 1-3 mg/kg; settings: in vivo, read-out: Vdss
[23] = Half life in dog at 1 to 3 mg/kg, iv; assay type: ADME, organism-based, Canis lupus familiaris; parameters: dose 1-3 mg/kg, route intravenous; settings: in vivo
[24] = Half life in dog at 1 to 3 mg/kg, po; assay type: ADME, organism-based, Canis lupus familiaris; parameters: dose 1-3 mg/kg, route oral; settings: in vivo
[25] = Oral bioavailability in dog at 1 to 3 mg/kg; assay type: ADME, organism-based, Canis lupus familiaris; settings: in vivo
Hepatocyte [26] = test: Metabolic stability in rat hepatocytes assessed as compound remaining; assay type: ADME, cell-based
Liver [27] = test: Drug uptake in rat liver assessed as covalent binding measured per mg protein at 40 uCi/kg, po at 2 hrs; assay type: ADME, organism-based; settings: in vivo
Plasma = test: Drug uptake in rat plasma assessed as covalent binding measured at 40 uCi/kg, po at 24 hrs; assay type: ADME, organism-based; settings: in vivo
Liver [28] = test: Drug uptake in rat liver assessed as covalent binding measured per mg protein at 40 uCi/kg, po at 24 hrs; assay type: ADME, organism-based; settings: in vivo
[29] = target: 11-beta-hydroxysteroid dehydrogenase type 2 (Homo sapiens, UniProt P80365); test: Inhibition of recombinant 11betaHSD2 using cortisol as substrate after 40 mins by fluorescence spectrophotometry
[30] = target: 17-beta-hydroxysteroid dehydrogenase type 1 (Homo sapiens, UniProt P14061); test: Inhibition of recombinant 17betaHSD1 using [3H]estrone as substrate after 20 mins by flow scintillation analysis
Chain of 17-beta-hydroxysteroid dehydrogenase type 1 (P14061 whole entry): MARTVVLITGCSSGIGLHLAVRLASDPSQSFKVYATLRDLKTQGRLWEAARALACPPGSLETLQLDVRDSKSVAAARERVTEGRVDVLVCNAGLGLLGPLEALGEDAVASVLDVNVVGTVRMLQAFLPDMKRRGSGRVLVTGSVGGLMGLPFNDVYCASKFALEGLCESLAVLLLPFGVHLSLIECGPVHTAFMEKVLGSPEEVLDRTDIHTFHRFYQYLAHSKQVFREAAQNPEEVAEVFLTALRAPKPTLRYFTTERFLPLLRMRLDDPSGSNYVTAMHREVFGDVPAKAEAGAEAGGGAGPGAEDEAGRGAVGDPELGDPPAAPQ

[31] = target: 17-beta-hydroxysteroid dehydrogenase type 3 (Homo sapiens, UniProt P37058); test: Inhibition of recombinant 17betaHSD3 using [3H]androstenedione as substrate after 90 mins by flow scintillation analysis
Chain of 17-beta-hydroxysteroid dehydrogenase type 3 (P37058 whole entry): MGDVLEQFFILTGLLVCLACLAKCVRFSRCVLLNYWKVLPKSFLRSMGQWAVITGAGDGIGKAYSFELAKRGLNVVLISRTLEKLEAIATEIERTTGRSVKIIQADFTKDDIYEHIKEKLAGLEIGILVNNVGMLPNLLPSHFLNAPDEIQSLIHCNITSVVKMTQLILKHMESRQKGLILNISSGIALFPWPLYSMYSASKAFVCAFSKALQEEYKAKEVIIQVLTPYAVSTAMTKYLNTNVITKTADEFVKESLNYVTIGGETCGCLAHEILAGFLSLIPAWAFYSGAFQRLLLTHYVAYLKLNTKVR

[32] = target: Glucocorticoid receptor (Homo sapiens) (UniProt P04150); test: Activity at glucocorticoid receptor
Chain of Glucocorticoid receptor (Homo sapiens) (P04150 whole entry): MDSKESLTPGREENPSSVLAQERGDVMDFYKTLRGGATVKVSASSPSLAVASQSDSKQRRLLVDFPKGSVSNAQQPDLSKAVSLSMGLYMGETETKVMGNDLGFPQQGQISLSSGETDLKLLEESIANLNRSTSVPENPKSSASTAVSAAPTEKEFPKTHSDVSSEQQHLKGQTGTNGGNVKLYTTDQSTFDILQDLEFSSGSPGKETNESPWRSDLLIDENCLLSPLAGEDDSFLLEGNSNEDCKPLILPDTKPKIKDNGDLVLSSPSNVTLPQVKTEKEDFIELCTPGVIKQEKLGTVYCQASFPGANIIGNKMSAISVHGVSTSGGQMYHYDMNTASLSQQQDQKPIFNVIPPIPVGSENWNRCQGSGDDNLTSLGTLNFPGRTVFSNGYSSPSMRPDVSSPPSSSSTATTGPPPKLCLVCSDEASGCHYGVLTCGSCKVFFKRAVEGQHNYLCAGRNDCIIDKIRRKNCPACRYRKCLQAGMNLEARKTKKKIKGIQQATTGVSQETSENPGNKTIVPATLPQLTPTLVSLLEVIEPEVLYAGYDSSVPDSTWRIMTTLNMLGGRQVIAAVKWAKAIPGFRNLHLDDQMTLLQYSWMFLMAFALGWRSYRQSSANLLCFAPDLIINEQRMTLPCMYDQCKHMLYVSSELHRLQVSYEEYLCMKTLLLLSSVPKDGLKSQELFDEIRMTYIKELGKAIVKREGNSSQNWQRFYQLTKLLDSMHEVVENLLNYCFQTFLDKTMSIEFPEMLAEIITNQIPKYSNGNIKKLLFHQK

[33] = target: Mineralocorticoid receptor (Homo sapiens) (UniProt P08235); test: Activity at mineralocorticoid receptor
Chain of Mineralocorticoid receptor (Homo sapiens) (P08235 whole entry): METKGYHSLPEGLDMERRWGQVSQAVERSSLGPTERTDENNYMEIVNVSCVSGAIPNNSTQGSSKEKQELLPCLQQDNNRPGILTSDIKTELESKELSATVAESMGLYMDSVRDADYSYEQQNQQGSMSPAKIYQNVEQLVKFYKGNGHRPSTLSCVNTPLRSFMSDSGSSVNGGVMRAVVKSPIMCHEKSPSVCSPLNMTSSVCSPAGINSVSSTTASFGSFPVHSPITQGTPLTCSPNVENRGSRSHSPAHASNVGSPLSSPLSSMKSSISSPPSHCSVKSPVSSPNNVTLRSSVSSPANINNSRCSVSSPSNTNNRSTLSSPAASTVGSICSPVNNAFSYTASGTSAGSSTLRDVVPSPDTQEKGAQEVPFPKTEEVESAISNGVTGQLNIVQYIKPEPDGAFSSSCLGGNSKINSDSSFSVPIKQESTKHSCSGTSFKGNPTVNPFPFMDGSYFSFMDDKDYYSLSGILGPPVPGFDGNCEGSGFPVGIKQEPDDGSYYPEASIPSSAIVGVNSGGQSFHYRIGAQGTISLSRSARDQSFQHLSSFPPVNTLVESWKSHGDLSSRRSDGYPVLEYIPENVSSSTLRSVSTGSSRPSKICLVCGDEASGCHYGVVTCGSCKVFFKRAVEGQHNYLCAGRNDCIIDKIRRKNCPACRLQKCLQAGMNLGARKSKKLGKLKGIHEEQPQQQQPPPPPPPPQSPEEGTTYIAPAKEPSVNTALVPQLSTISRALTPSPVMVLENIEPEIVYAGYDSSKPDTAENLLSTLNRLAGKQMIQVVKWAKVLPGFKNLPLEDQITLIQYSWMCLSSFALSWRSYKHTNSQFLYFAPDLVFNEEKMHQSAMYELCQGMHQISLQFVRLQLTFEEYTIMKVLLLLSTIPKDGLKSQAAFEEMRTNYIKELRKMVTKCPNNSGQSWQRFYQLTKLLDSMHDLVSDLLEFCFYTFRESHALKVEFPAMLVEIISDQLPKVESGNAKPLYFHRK

Salmonella typhimurium = test: Mutagenicity against Salmonella typhimurium by Ames test; assay type: toxicity, organism-based; settings: salmonella enterica subsp. enterica serovar typhimurium
L5178Y = test: Mutagenicity against mouse L5178Y cells by mouse lymphoma assay; assay type: toxicity, cell-based
Cavia porcellus = organism: Cavia porcellus; test: Toxicity against guinea pig by monophasic action potential assay; assay type: organism-based; settings: in vivo
[34] = Induction in cytochrome P450 in rat up to 1 month; assay type: ADME
[35] = target: Type-2 angiotensin II receptor (Homo sapiens) (UniProt P50052); test: Activity at AT2 receptor
[36] = target: Gastrin/cholecystokinin type B receptor (Homo sapiens) (UniProt P32239); test: Activity at CCK2 receptor
[37] = target: 11-beta-hydroxysteroid dehydrogenase 1 (Mus musculus, UniProt P50172); test: Inhibition of N-terminal His6-tagged full length mouse 11betaHSD1 expressed in baculovirus infected cells using cortisone as substrate after 25 mins by HTRF assay
Chain of 11-beta-hydroxysteroid dehydrogenase 1 (Mus musculus, UniProt P50172) (P50172 whole entry): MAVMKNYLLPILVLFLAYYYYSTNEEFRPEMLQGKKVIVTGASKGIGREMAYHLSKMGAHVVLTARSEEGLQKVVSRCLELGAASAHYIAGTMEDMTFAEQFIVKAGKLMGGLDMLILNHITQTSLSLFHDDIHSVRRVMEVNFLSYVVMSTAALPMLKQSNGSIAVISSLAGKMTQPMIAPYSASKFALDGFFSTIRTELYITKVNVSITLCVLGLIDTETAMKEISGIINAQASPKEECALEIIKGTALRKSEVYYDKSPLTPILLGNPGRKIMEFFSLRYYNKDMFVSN

[38] = target: 11-beta-hydroxysteroid dehydrogenase 1 (Rattus norvegicus, UniProt P16232); test: Inhibition of N-terminal His6-tagged full length rat 11betaHSD1 expressed in baculovirus infected cells using cortisone as substrate after 25 mins by HTRF assay
Chain of 11-beta-hydroxysteroid dehydrogenase 1 (Rattus norvegicus, UniProt P16232) (P16232 whole entry): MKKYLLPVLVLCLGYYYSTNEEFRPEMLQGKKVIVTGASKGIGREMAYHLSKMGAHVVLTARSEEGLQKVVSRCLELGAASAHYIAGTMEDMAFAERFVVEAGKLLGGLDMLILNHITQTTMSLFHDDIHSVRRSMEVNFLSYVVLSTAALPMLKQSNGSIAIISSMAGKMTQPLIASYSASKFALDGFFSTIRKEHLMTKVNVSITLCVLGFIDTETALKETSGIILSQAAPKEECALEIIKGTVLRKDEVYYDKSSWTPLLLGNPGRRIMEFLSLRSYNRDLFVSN

[39] = target: 11-beta-hydroxysteroid dehydrogenase type 1 (Canis lupus familiaris, UniProt Q5XX84); test: Inhibition of N-terminal His6-tagged full length dog 11betaHSD1 expressed in baculovirus infected cells using cortisone as substrate after 25 mins by HTRF assay
[40] = Inhibition of N-terminal His6-tagged full length cynomolgus monkey 11betaHSD1 expressed in baculovirus infected cells using cortisone as substrate after 25 mins by HTRF assay; parameters: species or system Macaca fascicularis
Mus musculus [41] = test: Ex-vivo inhibition of 11betaHSD1 in C57Bl6J mouse epididymal adipose tissue using [3H]cortisone as substrate at 50 mg/kg, po after 1 hr by flow scintillation analysis; assay type: functional
Mus musculus [42] = test: Ex-vivo inhibition of 11betaHSD1 in C57Bl6J mouse epididymal adipose tissue using [3H]cortisone as substrate at 1500 mg/kg, po after 1 hr by flow scintillation analysis; assay type: functional
Mus musculus [43] = test: Ex-vivo inhibition of 11betaHSD1 in po dosed C57Bl6J mouse epididymal adipose tissue using [3H]cortisone as substrate after 1 hr by flow scintillation analysis; assay type: functional, organism-based
[44] = Metabolic stability in dog hepatocytes assessed as compound remaining; assay type: ADME, cell-based, Canis lupus familiaris, Hepatocyte
Hepatocyte [45] = test: Metabolic stability in human hepatocytes assessed as compound remaining; assay type: ADME, cell-based
in vivo = settings: rat

- logD at 0.5 h [1]: 2.2
- fraction unbound [2]: 0.017
- solubility at 24 h [3]: 144 µM (≈ 60.4 µg/mL)
- hepatocyte CLint [4]: < 2 µL/min/1e6 cells
- bioavailability [5]: > 100%
- fraction unbound [6]: 0.029
- fraction unbound [7]: 0.023
- fraction unbound [8]: 0.008
- Papp A→B at 10 µM [9]: 29 ×10⁻⁶ cm/s
- Papp B→A at 10 µM [10]: 22 ×10⁻⁶ cm/s
- inhibition at 10 µM (CYP1A2): < 25%
- inhibition at 10 µM (CYP2C9): < 25%
- inhibition at 10 µM (CYP2D6): < 25%
- inhibition at 10 µM (CYP2C19): < 25%
- inhibition at 10 µM (CYP3A4): < 25%
- clearance [11]: 16 mL/min/kg
- Vd [12]: 4.2 L/kg
- half-life [13]: 252 min
- half-life [14]: 192 min
- bioavailability [15]: > 100%
- clearance [16]: 9 mL/min/kg
- Vd [17]: 2.6 L/kg
- half-life [18]: 264 min
- half-life [19]: 282 min
- bioavailability [20]: > 100%
- clearance [21]: 7 mL/min/kg
- Vd [22]: 0.9 L/kg
- half-life [23]: 372 min
- half-life [24]: 294 min
- bioavailability [25]: 60%
- Stability (Hepatocyte [26]): 66%
- Drug uptake (Liver [27]): < 25 pmol
- Drug uptake (Plasma): Not Active
- Drug uptake (Liver [28]): Not Active
- IC50 [29]: > 30 µM
- IC50 [30]: > 30 µM
- IC50 [31]: > 30 µM
- Activity [32]: inactive
- Activity [33]: inactive
- Activity [35]: Active
- Activity [36]: Active
- IC50 [37]: 750 nM
- IC50 [38]: 4.06 µM
- IC50 [39]: 3.77 µM
- IC50 [40]: 29 nM
- Stability [44]: 34%
- Stability (Hepatocyte [45]): 93%
- clearance (in vivo): 9 mL/min/kg
SMILES: CCCSc1nc(N2CCC[C@@H](CC(=O)O)C2)ccc1C(=O)NC1CCCCC1 [AZD-4017]
- Activity (Salmonella typhimurium): Non-toxic
- Activity (L5178Y): Non-toxic
- Activity (Cavia porcellus): Non-toxic
- Activity [34]: Non-toxic
- inhibition in vivo at 50 mg/kg (Mus musculus [41]): 50%
- Imax (Mus musculus [42]): 70%
- inhibition (Mus musculus [43]): Dose-dependent effect
